These results are taken from patent US11560366B2, “Bicyclo[1.1.1]pentane inhibitors of dual leucine zipper (DLK) kinase for the treatment of disease” (Board of Regents, The University of Texas System, priority 2019, dated 2023).

Like-named read-outs stand apart in the source and are kept apart here.

The Kd is the concentration at which binding is half-saturated. Broadly, the clearance is the volume of plasma or blood freed of the substance per unit of time. The term AUC(0-t) denotes the area under the concentration-time curve up to a stated or last time point. For orientation: Cmax means the maximum level reached in the sampled fluid or tissue.

For series [1], the target named is human DLK (Homo sapiens (Human), UniProt Q12852). Description: DLK Kd determination (KINOMEscan KdELECT, DiscoveRx). In kind it is binding.
Sequence of human DLK (Q12852 whole entry): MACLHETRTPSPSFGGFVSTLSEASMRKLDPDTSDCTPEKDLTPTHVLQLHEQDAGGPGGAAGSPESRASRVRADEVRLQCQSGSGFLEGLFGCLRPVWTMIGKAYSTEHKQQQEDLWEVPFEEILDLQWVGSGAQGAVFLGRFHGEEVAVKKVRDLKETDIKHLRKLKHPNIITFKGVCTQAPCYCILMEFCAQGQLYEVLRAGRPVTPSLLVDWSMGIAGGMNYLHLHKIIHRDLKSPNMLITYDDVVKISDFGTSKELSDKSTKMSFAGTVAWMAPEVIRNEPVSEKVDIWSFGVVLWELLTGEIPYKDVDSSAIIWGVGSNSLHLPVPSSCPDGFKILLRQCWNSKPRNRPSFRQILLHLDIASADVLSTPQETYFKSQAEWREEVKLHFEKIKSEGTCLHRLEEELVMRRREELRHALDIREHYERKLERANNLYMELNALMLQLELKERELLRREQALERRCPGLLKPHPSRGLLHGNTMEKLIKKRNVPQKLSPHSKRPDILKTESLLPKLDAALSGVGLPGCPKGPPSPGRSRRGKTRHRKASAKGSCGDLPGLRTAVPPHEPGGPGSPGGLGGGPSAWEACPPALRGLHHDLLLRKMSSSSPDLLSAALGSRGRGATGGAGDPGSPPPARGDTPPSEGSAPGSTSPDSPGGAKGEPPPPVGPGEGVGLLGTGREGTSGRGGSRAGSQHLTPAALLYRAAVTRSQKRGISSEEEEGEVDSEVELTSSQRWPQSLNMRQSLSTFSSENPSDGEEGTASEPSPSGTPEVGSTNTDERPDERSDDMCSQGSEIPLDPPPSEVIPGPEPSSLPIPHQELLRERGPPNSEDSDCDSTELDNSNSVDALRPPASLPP
Method: The DLK dissociation constants (Kd) have been determined in the KINOMEscan KdELECT Service at DiscoveRx.
A fusion protein of full length of human DLK (amino acids 1-859) and the DNA binding domain of NFkB was expressed in transiently transfected HEK293 cells. From these HEK 293 cells, extracts were prepared in M-PER extraction buffer (Pierce) in the presence of Protease Inhibitor Cocktail Complete (Roche) and Phosphatase Inhibitor Cocktail Set II (Merck) per manufacturers' instructions. The DLK fusion protein was labeled with a chimeric double-stranded DNA tag containing the NFkB binding site (5′-[sequence]-3′, SEQ ID NO:1) fused to an amplicon for qPCR readout, which was added directly to the expression extract (the final concentration of DNA-tag in the binding reaction is 0.1 nM).
The liganded beads were blocked with excess biotin and washed with blocking buffer (SeaBlock (Pierce), 1% BSA, 0.05% Tween 20, 1 mM DTT) to remove unbound ligand and to reduce nonspecific binding.
Extracts were used directly in binding assays without any enzyme purification steps at a >10,000-fold overall stock dilution (final DNA-tagged enzyme concentration <0.1 nM). Extracts were loaded with DNA-tag and diluted into the binding reaction in a two step process. First extracts were diluted 1:100 in 1× binding buffer (PBS/0.05% Tween 20/10 mM DTT/0.1% BSA/2 μg/ml sonicated salmon sperm DNA) containing 10 nM DNA-tag. This dilution was allowed to equilibrate at room temperature for 15 minutes and then subsequently diluted 1:100 in 1× binding buffer. Test compounds were prepared as 111× stocks in 100% DMSO. Kds were determined using an 11-point 3-fold compound dilution series with three DMSO control points. […] The compounds were then diluted directly into the assays such that the final concentration of DMSO was 0.9%. All reactions performed in polypropylene 384-well plates. Each was a final volume of 0.02 mL. Assays were incubated with shaking for 1 hour at room temperature. Then the beads were pelleted and washed with wash buffer (1×PBS, 0.05% Tween 20) to remove displaced kinase and test compound. […] The kinase concentration in the eluates was measured by qPCR. qPCR reactions were assembled by adding 2.5 μL of kinase eluate to 7.5 μL of qPCR master mix containing 0.15 μM amplicon primers and 0.15 μM amplicon probe.
Test compounds were prepared as 111× stocks in 100% DMSO. Kds were determined using an 11-point 3-fold compound dilution series with three DMSO control points. […] The compounds were then diluted directly into the assays such that the final concentration of DMSO was 0.9%. The Kds were determined using a compound top concentration of 30,000 nM. Kd measurements were performed in duplicate.
Binding constants (Kds) were calculated with a standard dose-response curve using the Hill equation:
The Hill Slope was set to −1.
Series [2] in a line: Metabolic stability in liver microsomes, rat. In kind it is in vitro ADME. To be noted: Sprague Dawley, 0.5 mg/mL microsomes, NADPH, 45 minutes, 37° C., read-out: Half-life in liver microsomes (t1/2, minutes). The method, then:
(§1) The test compound was incubated with liver microsomes (0.5 mg/mL) from CD-1 mouse, Sprague Dawley rat, Beagle dog, Cynomolgus monkey, and human in the presence of NADPH for 45 minutes at 37° C. The % parent remaining over time was determined by LC-MS/MS, using peak area ratios. Half-life (t1/2) was calculated using the following equation: t1/2=ln2/k, where k is the rate constant of parent decay over time (slope of the plot of log[% parent remaining] versus time).

Series [3] can be described thus: Metabolic stability in liver microsomes, human. In kind it is in vitro ADME. To be noted: 0.5 mg/mL microsomes, NADPH, 45 minutes, 37° C., read-out: Half-life in liver microsomes (t1/2, minutes). Here is the method: as §1
The nature of series [4]: Metabolic stability in liver microsomes, mouse. The following applies: CD-1, liver microsomes, 0.5 mg/mL microsomes, NADPH, 45 minutes, 37° C., read-out: Half-life in liver microsomes (t1/2, minutes). In kind it is in vitro ADME, CD-1 mouse. Here is the method: as §1
(In general: Liver microsomes are vesicles of endoplasmic reticulum, rich in cytochrome P450 enzymes.)

A short description of series [5]: Mouse pharmacokinetics, single dose. The following applies: for Kp / unbound brain-to-plasma ratio (Kp,uu): brain and plasma, po, 10 mg/kg, based on AUC; for Kp / unbound brain-to-plasma ratio (Kp,uu) / AUC(0-t) / Cmax / bioavailability: oral dose 10 mg/kg; for Kp: read-out: Brain/Plasma Ratio; for unbound brain-to-plasma ratio (Kp,uu): read-out: Free Brain/Plasma Ratio; for clearance / half-life / Vd: in vivo; for Vd: read-out: Vss; for AUC(0-t) / Cmax / bioavailability: plasma; for brain penetration, in words: relative to 13 and 14b and to 1a, 4b, 8a and 9b; for clearance in mice, comparison in words / half-life in mice, comparison in words: relative to comparator compounds 13 or 14b. In kind it is in vivo, male C57BL/6 mice.

A short description of series [6]: Metabolic stability in liver microsomes, monkey. It counts as in vitro ADME, Cynomolgus monkey. The following applies: 0.5 mg/mL microsomes, NADPH, 45 minutes, 37° C., read-out: Half-life in liver microsomes (t1/2, minutes). Here is the method:
as §1

Series [7] is described as follows: Metabolic stability in liver microsomes, dog. The following applies: Beagle, 0.5 mg/mL microsomes, NADPH, 45 minutes, 37° C., read-out: Half-life in liver microsomes (t1/2, minutes). In kind it is in vitro ADME. The method, then: as §1
A short description of series [8]: Rat pharmacokinetics, single dose. It counts as in vivo, Wistar Han rats. The following applies: rat, in vivo, Wistar Han rats. Here is the method: Pharmacokinetics for compounds 13, 1a, and 9b were determined using single dosage of Wistar Han rats using techniques that are well known in the art.
The nature of series [9]: Metabolic stability in liver microsome preparations, overall comparison. It counts as in vitro ADME. To be noted: relative to comparator compounds 13 or 14/14b (WO2018207072). Here is the method:
as §1

[10] abbreviates: male, C57BL/6, mouse, male C57BL/6 mice.
[11] abbreviates: mouse, male C57BL/6 mice, IV dose 0.3 mg/kg (1a, 4b, 13, 14b, 16; IV dose of 8a, 9b not stated).
[12] abbreviates: full length human DLK fusion protein, qPCR readout, duplicate, read-out: Kd.
The mark [13] stands for this setting: male, C57BL/6, mouse, iv, 1 mg/kg.

For the compound `CC(C)[C@H](O)c1nc(-c2cnc(N)c(OC(F)(F)F)c2)cn1C12CC(F)(C1)C2` (single isomer, unassigned) [Example 3b], the Kd in [1] (read-out: Kd) stood at 0.24 nM.

For the compound `CC(C)[C@@H](O)c1nc(-c2cnc(N)c(C(F)(F)F)c2)cn1C12CC(N3CCC(F)(F)CC3)(C1)C2` (single isomer, unassigned) [Example 7a], the half-life came out at 566 min in series [2] and 70 min in series [3]. Also, the Kd in series [1] (read-out: Kd) is 0.21 nM.

As for `CC(C)[C@@H](O)c1nc(-c2cnc(N)c(OC(F)(F)F)c2)cn1C12CC(N3CCC(F)(F)CC3)(C1)C2` (single isomer, unassigned) [Example 8a], the half-life in [4] was 322 min. Also, in series [2], the half-life came to 201 min. Further, in series [5] (setting [10]), the Kp amounted to 0.82 and the unbound brain-to-plasma ratio (Kp,uu) is 0.38. In series [5] (setting [11]), the clearance is 7 mL/min/kg, the half-life was 6.7 h and the Vd was 3.8 L/kg. For the same compound, in [5] (mouse, male C57BL/6 mice), the AUC(0-t) was found to be 41.4 µM·h, the Cmax was determined as 3.54 µM and the bioavailability was 106%. Also, the Kd in series [1] (read-out: Kd) was found to be 0.5 nM. The half-life in [3] was 297 min.

Consider `Nc1ncc(-c2cn(C34CC(N5CCC(F)(F)CC5)(C3)C4)c([C@@H](O)C(F)(F)F)n2)cc1C(F)(F)F` (single isomer, unassigned) [Example 10a], for which, in series [1] (read-out: Kd), the Kd amounted to 0.62 nM.

Take `Nc1ncc(-c2cn(C34CC(C3)C4)c([C@@H](O)C(F)(F)F)n2)cc1OC(F)(F)F` [Compound 13, (R)-1-(4-(6-amino-5-(trifluoromethoxy)-pyridin-3-yl)-1-(bicyclo[1.1.1]pentan-1-yl)-1H-imidazol-2-yl)-2,2,2-trifluoroethan-1-ol, reference compound]: the half-life was 56 min in series [6]; 221 min in [4]; 77 min in series [2]; 3.53 h in series [5] (setting [11]); 109 min in series [7]; 121 min in series [3]. The same compound showed a half-life in series [8] (IV dose 1 mg/kg) of 9.94 h. For the same compound, in series [5] (setting [10]), the Kp worked out at 2.97. Also, the unbound brain-to-plasma ratio (Kp,uu) in series [5] (setting [10]) came out at 1.54. In addition, the clearance in series [5] (setting [11]) amounted to 14.1 mL/min/kg; in [8] (IV dose 1 mg/kg), 12.1 mL/min/kg. The Vd came out at 4.6 L/kg in [5] (setting [11]) and 7.9 L/kg in series [8] (IV dose 1 mg/kg, read-out: Vss). Further, the AUC(0-t) in series [5] (mouse, male C57BL/6 mice) worked out at 14.4 µM·h; in series [8] (oral dose 3 mg/kg), 7.59 µM·h. For the same compound, the Cmax is 1.95 µM in series [5] (mouse, male C57BL/6 mice) and 0.909 µM in [8] (oral dose 3 mg/kg). Moreover, the bioavailability in series [5] (mouse, male C57BL/6 mice) turned out to be 51%; in series [8] (oral dose 3 mg/kg), 86.3%. In series [1] (setting [12]), the equilibrium dissociation constant (Kd) turned out to be 1.6 nM.

Take `CC(C)C(O)c1nc(-c2cnc(N)c(C(F)(F)F)c2)cn1C12CC(C1)C2` (centres unmarked) [Compound 14, 1-(4-(6-amino-5-(trifluoromethyl)pyridin-3-yl)-1-(bicyclo[1.1.1]pentan-1-yl)-1H-imidazol-2-yl)-2-methylpropan-1-ol, reference compound]: the half-life in series [2] amounted to 27 min; in series [3] it was 41 min. Moreover, in series [1] (setting [12]), the dissociation constant (Kd) amounted to 0.3 nM.

For `CC(C)[C@H](O)c1nc(-c2cnc(N)c(C(F)(F)F)c2)cn1C12CC(C1)C2` [Compound 14b, (S)-1-(4-(6-amino-5-(trifluoromethyl)pyridin-3-yl)-1-(bicyclo[1.1.1]pentan-1-yl)-1H-imidazol-2-yl)-2-methylpropan-1-ol, reference compound], the half-life in series [6] is 7 min; in series [4], 16 min; in series [2], 23 min; in [5] (setting [11]) it was 0.7 h; in [7], 154 min; in [3] it was 26 min. In series [5] (setting [11]), this compound displayed a clearance of 76.7 mL/min/kg. Moreover, in series [5] (setting [11]), the Vd came to 3.72 L/kg. Moreover, the AUC(0-t) in series [5] (mouse, male C57BL/6 mice) worked out at 3.62 µM·h. In addition, the Cmax in series [5] (mouse, male C57BL/6 mice) worked out at 3.38 µM. For the same compound, in series [5] (mouse, male C57BL/6 mice), the bioavailability is 61.2%. For the same compound, the Kd in series [1] (setting [12]) is 0.12 nM.

`CC(C)[C@H](O)c1nc(-c2cnc(N)c(OC(F)(F)F)c2)cn1C12CC(N3CCOCC3)(C1)C2` [Compound 15, (S)-1-(4-(6-amino-5-(trifluoromethoxy)pyridin-3-yl)-1-(3-morpholinobicyclo[1.1.1]pentan-1-yl)-1H-imidazol-2-yl)-2-methylpropan-1-ol, reference compound]: the half-life in [4] was 1840 min. Moreover, the half-life in series [2] was found to be 3000 min. In addition, in [5] (setting [10]), the Kp stood at 0.24 and the unbound brain-to-plasma ratio (Kp,uu) was found to be 0.16. Further, in series [5] (setting [13]), the clearance was found to be 12 mL/min/kg, the half-life was 5.4 h and the Vd is 4.1 L/kg. Besides, in series [5] (mouse), the “brain penetration, in words” value is recorded as “reduced brain penetration”. Besides, in series [5], the “clearance in mice, comparison in words” value is “reduced clearances” and the “half-life in mice, comparison in words” value is “longer half-lives”. Moreover, the “microsomal stability, comparison in words” value in [9] was “improved microsomal stability”. Moreover, in [3], the half-life turned out to be 80 min.

Regarding `Nc1ncc(-c2cn(C34CC(N5CCOCC5)(C3)C4)c([C@@H](O)C(F)(F)F)n2)cc1OC(F)(F)F` [Compound 16, (R)-1-(4-(6-amino-5-(trifluoromethoxy)pyridin-3-yl)-1-(3-morpholinobicyclo[1.1.1]pentan-1-yl)-1H-imidazol-2-yl)-2,2,2-trifluoroethan-1-ol, reference compound], the half-life in series [4] turned out to be 1040 min. Besides, the half-life in series [2] worked out at 1500 min. Further, in series [5] (setting [10]), the Kp came to 0.21 and the unbound brain-to-plasma ratio (Kp,uu) was 0.16. Also, in series [5] (setting [11]), the clearance was found to be 4.4 mL/min/kg, the half-life was 5.2 h and the Vd worked out at 1.8 L/kg. In series [5] (mouse, male C57BL/6 mice), the AUC(0-t) turned out to be 70.3 µM·h, the Cmax worked out at 11.9 µM and the bioavailability is 92.1%. For the same compound, the “brain penetration, in words” value in series [5] (mouse) is “reduced brain penetration”. In [5], the “clearance in mice, comparison in words” value is “reduced clearances” and the “half-life in mice, comparison in words” value was “longer half-lives”. Further, in [1] (setting [12]), the Kd was found to be 0.36 nM. Besides, in series [9], the “microsomal stability, comparison in words” value is recorded as “improved microsomal stability”. Moreover, in series [3], the half-life is 260 min.

Regarding `Nc1ncc(-c2cn(C34CC(F)(C3)C4)c([C@H](O)C(F)(F)F)n2)cc1OC(F)(F)F` [Example 1b, (S)-1-(4-(6-amino-5-(trifluoromethoxy)pyridin-3-yl)-1-(3-fluorobicyclo[1.1.1]pentan-1-yl)-1H-imidazol-2-yl)-2,2,2-trifluoroethanol], binding in series [1] was put at a Kd of 120 nM.

Regarding `Nc1ncc(-c2cn(C34CC(F)(C3)C4)c([C@@H](O)C(F)(F)F)n2)cc1C(F)(F)F` [Example 2a, (R)-1-(4-(6-amino-5-(trifluoromethyl)pyridin-3-yl)-1-(3-fluorobicyclo[1.1.1]pentan-1-yl)-1H-imidazol-2-yl)-2,2,2-trifluoroethanol], in [1] (read-out: Kd), the Kd came out at 4.4 nM.

Regarding `Nc1ncc(-c2cn(C34CC(F)(C3)C4)c(C(O)C3CC3)n2)cc1OC(F)(F)F` (centres unmarked) [Example 5, (4-(6-amino-5-(trifluoromethoxy)pyridin-3-yl)-1-(3-fluorobicyclo[1.1.1]pentan-1-yl)-1H-imidazol-2-yl)(cyclopropyl)methanol], in [1] (read-out: Kd), the equilibrium dissociation constant (Kd) is 5.2 nM.

Consider `Nc1ncc(-c2cn(C34CC(F)(C3)C4)c(C(O)C3CC3)n2)cc1C(F)(F)F` (centres unmarked) [Example 6, (4-(6-amino-5-(trifluoromethyl)pyridin-3-yl)-1-(3-fluorobicyclo[1.1.1]pentan-1-yl)-1H-imidazol-2-yl)(cyclopropyl)methanol], for which, in series [1] (read-out: Kd), the Kd was determined as 7.7 nM.

Consider `Nc1ncc(-c2cn(C34CC(N5CCC(F)(F)CC5)(C3)C4)c(C(O)C3CC3)n2)cc1OC(F)(F)F` (centres unmarked) [Example 11, (4-(6-amino-5-(trifluoromethoxy)pyridin-3-yl)-1-(3-(4,4-difluoropiperidin-1-yl)bicyclo[1.1.1]pentan-1-yl)-1H-imidazol-2-yl)(cyclopropyl)methanol], for which the Kd in series [1] (read-out: Kd) worked out at 3.1 nM.

As to `Nc1ncc(-c2cn(C34CC(N5CCC(F)(F)CC5)(C3)C4)c(C(O)C3CC3)n2)cc1C(F)(F)F` (centres unmarked) [Example 12, (4-(6-amino-5-(trifluoromethyl)pyridin-3-yl)-1-(3-(4,4-difluoropiperidin-1-yl)bicyclo[1.1.1]pentan-1-yl)-1H-imidazol-2-yl)(cyclopropyl)methanol], the Kd in series [1] (read-out: Kd) is 2.9 nM.
